Where two headings read alike, the source gives them in different places.
What was measured:
[1] = target: T1, L-alanine dehydrogenase (MtAlaDH) (Mycobacterium tuberculosis, UniProt P9WQB1); test: biochemical
T1 sequence (P9WQB1 1-371): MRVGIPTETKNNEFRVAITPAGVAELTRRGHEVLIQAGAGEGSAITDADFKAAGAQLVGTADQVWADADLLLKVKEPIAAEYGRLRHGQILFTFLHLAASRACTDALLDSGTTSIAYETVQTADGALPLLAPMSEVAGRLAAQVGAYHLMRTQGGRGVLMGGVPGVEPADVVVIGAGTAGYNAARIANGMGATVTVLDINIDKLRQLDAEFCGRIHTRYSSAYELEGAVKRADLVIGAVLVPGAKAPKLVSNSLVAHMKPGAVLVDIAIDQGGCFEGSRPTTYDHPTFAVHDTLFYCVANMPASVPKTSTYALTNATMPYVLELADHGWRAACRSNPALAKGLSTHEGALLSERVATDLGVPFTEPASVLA

[2] = target: Pantothenate synthetase (MtPS) (Mycobacterium tuberculosis, UniProt P9WIL5); test: Mycobacterial pantothenate synthetase (MtPS) screening; assay type: biochemical; conditions: 50 μM compound
Experimental: Sixty microliters of the PS reagent mix was added, including NADH, pantoic acid, β-alanine, ATP, phosphoenolpyruvate, MgCl2, myokinase, pyruvate kinase, and lactate dehydrogenase in buffer, to each well of a 96-well plate. The compounds were then added to plates in 1 μL volumes. The reaction was initiated by the addition of 39 μL PS diluted in buffer. The final concentrations in the reaction were 0.4 mM NADH, 5 mM pantoic acid, 10 mM MgCl2, 5 mM β-alanine, 10 mM ATP, 1 mM potassium phosphoenolpyruvate, and 18 units/mL each of chicken muscle myokinase, rabbit muscle pyruvate kinase, and rabbit muscle lactate dehydrogenase diluted in 100 mM HEPES buffer (pH 7.8), 1% DMSO, and 5 μg/mL PS in a final volume of 100 μL. The test plate was immediately transferred to a microplate reader, and absorbance was measured at 340 nm every 12 sec for 120 sec. […] The per cent inhibition was calculated using the following formula: 100 ∗ 1 − compound rate − background rate/full reaction rate − background rate.

Chorismate mutase (MtCM) = target: T2, Chorismate mutase (MtCM) (Mycobacterium tuberculosis, UniProt P9WIB9); test: biochemical
T2 sequence (P9WIB9 34-199): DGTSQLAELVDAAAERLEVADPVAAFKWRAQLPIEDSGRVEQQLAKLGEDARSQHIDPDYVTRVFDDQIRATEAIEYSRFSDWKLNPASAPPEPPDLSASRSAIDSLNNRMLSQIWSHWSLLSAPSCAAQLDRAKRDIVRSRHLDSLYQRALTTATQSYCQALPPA
Experimental: Reaction volumes of 0.4 mL of chorismate (typically 1 mM) in 50 mM Tris HCl (pH 7.5), 0.5 mM EDTA, 0.1 mg/mL bovine serum albumin, and 10 mM β-mercaptoethanol were incubated at 37°C for 5 min. […] The reaction was allowed to proceed at 37°C and was terminated after 1 to 5 min with 0.4 mL 1 M HCl. After a further incubation at 37°C for 10 min to convert prephenate, which is formed in the enzymatic reaction, to phenylpyruvate, 0.8 mL 2.5 M NaOH was added. The absorbance of the phenylpyruvate chromophore was read at 320 nm. We set up a blank with no enzyme for every reaction to account for the nonenzymatic conversion of chorismate to prephenate and added the enzyme after the addition of NaOH. […] A description of the methods can be found in the literature.

[3] = target: T3, Lysine ε-aminotransferase (MtLAT) (Mycobacterium tuberculosis, UniProt P9WQ77); test: biochemical
T3 sequence (P9WQ77 1-449): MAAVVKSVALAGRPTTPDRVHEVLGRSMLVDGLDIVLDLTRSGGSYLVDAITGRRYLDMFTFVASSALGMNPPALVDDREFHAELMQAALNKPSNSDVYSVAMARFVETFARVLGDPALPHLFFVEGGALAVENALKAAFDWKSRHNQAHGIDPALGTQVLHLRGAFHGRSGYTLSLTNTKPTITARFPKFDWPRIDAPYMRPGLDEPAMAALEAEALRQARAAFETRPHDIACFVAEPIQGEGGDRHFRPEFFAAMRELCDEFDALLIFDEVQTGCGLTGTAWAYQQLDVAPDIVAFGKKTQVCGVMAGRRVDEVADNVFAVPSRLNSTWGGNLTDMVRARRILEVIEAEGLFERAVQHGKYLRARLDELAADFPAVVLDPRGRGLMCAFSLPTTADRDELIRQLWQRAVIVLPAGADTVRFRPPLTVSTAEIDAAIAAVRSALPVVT

[4] = target: mycobacterial isocitrate lyase (ICL) (Mycobacterium tuberculosis, UniProt P9WKK7); test: Isocitrate lyase assay (ICL1), glyoxylate phenyl hydrazone formation; assay type: biochemical; conditions: read-out: % ICL inhibition at 10 μM (±standard deviation)
Experimental: Isocitrate lyase activity was assayed according to the protocol reported by Dixon and Kornberg (glyoxylate phenyl hydrazone formation) at 10 µM of the investigated compounds. […] A description of the method can be found in the literature.

Mtb H37Rv strain = conditions: cited from earlier work

Sequence of mycobacterial isocitrate lyase (ICL) (P9WKK7 whole entry): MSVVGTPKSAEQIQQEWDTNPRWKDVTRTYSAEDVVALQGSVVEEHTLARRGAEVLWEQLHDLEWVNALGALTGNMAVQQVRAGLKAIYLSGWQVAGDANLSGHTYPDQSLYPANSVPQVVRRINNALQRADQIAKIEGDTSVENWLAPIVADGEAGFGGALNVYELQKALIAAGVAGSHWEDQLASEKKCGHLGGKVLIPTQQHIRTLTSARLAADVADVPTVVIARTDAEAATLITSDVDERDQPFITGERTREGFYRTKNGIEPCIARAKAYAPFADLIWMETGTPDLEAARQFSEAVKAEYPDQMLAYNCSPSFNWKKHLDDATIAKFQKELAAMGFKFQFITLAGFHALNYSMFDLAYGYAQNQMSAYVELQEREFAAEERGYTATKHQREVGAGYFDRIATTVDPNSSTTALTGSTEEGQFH
Sequence of Pantothenate synthetase (MtPS) (P9WIL5 whole entry, looked up): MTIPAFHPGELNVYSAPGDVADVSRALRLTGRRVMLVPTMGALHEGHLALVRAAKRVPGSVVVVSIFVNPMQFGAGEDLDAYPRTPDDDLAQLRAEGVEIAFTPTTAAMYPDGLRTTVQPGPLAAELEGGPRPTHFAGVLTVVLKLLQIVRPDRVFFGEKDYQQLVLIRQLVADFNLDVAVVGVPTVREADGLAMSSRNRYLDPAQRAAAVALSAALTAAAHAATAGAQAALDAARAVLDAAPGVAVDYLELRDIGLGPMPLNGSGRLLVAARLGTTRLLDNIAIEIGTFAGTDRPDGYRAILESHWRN

| SMILES | % inhibition at 50 μM against L-MtAlaDH [1] [%] | IC50 [1] [µM] | % inhibition at 50 μM against MtCM (Chorismate mutase (MtCM)) [%] | % inhibition at 50 μM against MtLAT [3] [%] | inhibition at 10 µM ([4]; 10 μM compound) [%] | further results |
| --- | --- | --- | --- | --- | --- | --- |
| CCOP(=O)(OCC)Oc1cc(Cl)ccc1C(=O)Nc1cccc(Cl)c1 [1j] | 12.30 | > 50 | 54.56 | 29.30 | – | % inhibition at 50 μM against MtPS [2]: 3.64% |
| CCOP(=O)(OCC)Oc1cc(Cl)ccc1C(=O)Nc1ccc(C(F)(F)F)cc1 [1r] | 47.28 | > 50 | 50.05 | 23.18 | – | – |
| CCOP(=O)(OCC)Oc1cc(Cl)ccc1C(=O)Nc1cccc(Cl)c1 [1s, 5-Chloro-2-[(3-chlorophenyl)carbamoyl]phenyl diethyl phosphate] | – | 4.96 | – | – | – | inhibition at 10 µM [4]: 6 ± 0.83%; inhibition at 50 µM ([1]; read-out: % inhibition at 50 μM against L-MtAlaDH, 50 μM compound): > 70%; MICs against actively growing Mtb H37Rv strain (Mtb H37Rv strain): 4 to 8 µM; inhibition at 50 µM ([2]; read-out: % inhibition at 50 μM against MtPS): 11.2%; inhibition at 50 µM (Chorismate mutase (MtCM); read-out: % inhibition at 50 μM against MtCM, 50 μM compound): > 60%; inhibition at 50 µM ([3]; read-out: % inhibition at 50 μM against MtLAT, 50 μM compound): > 50% |
| O=C(O)CC[N+](=O)[O-] [3-Nitropropionic acid, 3-nitropropionic acid] | – | – | – | – | 25 ± 4.1 | – |
| NNC(=O)c1ccncc1 [Isoniazid] | – | – | – | – | 0 | – |
